Laboratory results: ChEMBL document CHEMBL3994568 (2016)
≈ marks a conversion by molar mass, not a printed value.

Key:
Assay type in all cases: functional
Bacillus = experiment: Antibacterial activity against Bacillus proteus ATCC 13315 after 24 hrs by two-fold microbroth dilution method; conditions: ATCC 13315, 24 h
Escherichia coli = experiment: Antibacterial activity against Escherichia coli JM109 after 24 hrs by two-fold microbroth dilution method; conditions: JM109, 24 h
Pseudomonas aeruginosa = experiment: Antibacterial activity against Pseudomonas aeruginosa ATCC 27853 after 24 hrs by two-fold microbroth dilution method; conditions: ATCC 27853, 24 h
[1] = Antibacterial activity against Eberthella typhosa ATCC 14028 after 24 hrs by two-fold microbroth dilution method; conditions: ATCC 14028, 24 h
Staphylococcus aureus [2] = experiment: Antibacterial activity against methicillin-resistant Staphylococcus aureus N315 after 24 hrs by two-fold microbroth dilution method; conditions: N315, 24 h
Staphylococcus aureus [3] = experiment: Antibacterial activity against Staphylococcus aureus ATCC 25923 after 24 hrs by two-fold microbroth dilution method; conditions: ATCC 25923, 24 h
Bacillus spizizenii = experiment: Antibacterial activity against Bacillus subtilis ATCC 6633 after 24 hrs by two-fold microbroth dilution method; conditions: ATCC 6633, 24 h
Micrococcus luteus = experiment: Antibacterial activity against Micrococcus luteus ATCC 4698 after 24 hrs by two-fold microbroth dilution method; conditions: NCTC 2665, 24 h
Cyberlindnera jadinii = experiment: Antifungal activity against Candida utilis ATCC 9950 after 24 hrs by two-fold microbroth dilution method; conditions: Williopsis jadinii, ATCC 9950, 24 h
Aspergillus flavus = experiment: Antifungal activity against Aspergillus flavus ATCC 204304 after 24 hrs by two-fold microbroth dilution method; conditions: ATCC 204304, 24 h
Saccharomyces cerevisiae = experiment: Antifungal activity against Saccharomyces cerevisiae ATCC 9763 after 24 hrs by two-fold microbroth dilution method; conditions: ATCC 9763, 24 h
Candida albicans = experiment: Antifungal activity against Candida albicans ATCC 10231 after 24 hrs by two-fold microbroth dilution method; conditions: ATCC 10231, 24 h
Pichia norvegensis = experiment: Antifungal activity against Candida mycoderma ATCC 9888 after 24 hrs by two-fold microbroth dilution method; conditions: ATCC 9888, 24 h

CCCCCCCCCCCCCCCCn1c2ccc(-c3csc(N)n3)cc2c2cc(-c3csc(N)n3)ccc21
MIC (Bacillus): 128 mg/L (≈ 218 µM)
MIC (Escherichia coli): 128 mg/L (≈ 218 µM)
MIC (Pseudomonas aeruginosa): 512 mg/L (≈ 871 µM)
MIC [1]: 512 mg/L (≈ 871 µM)
MIC (Staphylococcus aureus [2]): 256 mg/L (≈ 435 µM)
MIC (Staphylococcus aureus [3]): 256 mg/L (≈ 435 µM)
MIC (Bacillus spizizenii): 512 mg/L (≈ 871 µM)
MIC (Micrococcus luteus): 256 mg/L (≈ 435 µM)
MIC (Cyberlindnera jadinii): 128 mg/L (≈ 218 µM)
MIC (Aspergillus flavus): 128 mg/L (≈ 218 µM)
MIC (Saccharomyces cerevisiae): 256 mg/L (≈ 435 µM)
MIC (Candida albicans): 512 mg/L (≈ 871 µM)
MIC (Pichia norvegensis): 512 mg/L (≈ 871 µM)

CCCCCCCCCCCCCCCCn1c2ccc(C(=O)CCl)cc2c2cc(C(=O)CCl)ccc21
MIC (Bacillus): 256 mg/L (≈ 470 µM)
MIC (Escherichia coli): 256 mg/L (≈ 470 µM)
MIC (Pseudomonas aeruginosa): 256 mg/L (≈ 470 µM)
MIC [1]: 512 mg/L (≈ 940 µM)
MIC (Staphylococcus aureus [2]): 256 mg/L (≈ 470 µM)
MIC (Staphylococcus aureus [3]): 128 mg/L (≈ 235 µM)
MIC (Bacillus spizizenii): 256 mg/L (≈ 470 µM)
MIC (Micrococcus luteus): 256 mg/L (≈ 470 µM)
MIC (Cyberlindnera jadinii): 256 mg/L (≈ 470 µM)
MIC (Aspergillus flavus): 256 mg/L (≈ 470 µM)
MIC (Saccharomyces cerevisiae): 512 mg/L (≈ 940 µM)
MIC (Candida albicans): 512 mg/L (≈ 940 µM)
MIC (Pichia norvegensis): 256 mg/L (≈ 470 µM)

CCCCCCCCCCCCCCCCCCn1c2ccc(C(=O)CCl)cc2c2cc(C(=O)CCl)ccc21
MIC (Bacillus): 512 mg/L (≈ 894 µM)
MIC (Escherichia coli): 256 mg/L (≈ 447 µM)
MIC (Pseudomonas aeruginosa): 256 mg/L (≈ 447 µM)
MIC [1]: 256 mg/L (≈ 447 µM)
MIC (Staphylococcus aureus [2]): 256 mg/L (≈ 447 µM)
MIC (Staphylococcus aureus [3]): 128 mg/L (≈ 224 µM)
MIC (Bacillus spizizenii): 512 mg/L (≈ 894 µM)
MIC (Micrococcus luteus): 512 mg/L (≈ 894 µM)
MIC (Cyberlindnera jadinii): 512 mg/L (≈ 894 µM)
MIC (Aspergillus flavus): 256 mg/L (≈ 447 µM)
MIC (Saccharomyces cerevisiae): 256 mg/L (≈ 447 µM)
MIC (Candida albicans): 512 mg/L (≈ 894 µM)
MIC (Pichia norvegensis): 512 mg/L (≈ 894 µM)

CCCn1c2ccc(C(=O)CCl)cc2c2cc(C(=O)CCl)ccc21
MIC (Bacillus): 128 mg/L (≈ 353 µM)
MIC (Escherichia coli): 256 mg/L (≈ 707 µM)
MIC (Pseudomonas aeruginosa): 256 mg/L (≈ 707 µM)
MIC [1]: 256 mg/L (≈ 707 µM)
MIC (Staphylococcus aureus [2]): 512 mg/L (≈ 1410 µM)
MIC (Staphylococcus aureus [3]): 512 mg/L (≈ 1410 µM)
MIC (Bacillus spizizenii): 512 mg/L (≈ 1410 µM)
MIC (Micrococcus luteus): 512 mg/L (≈ 1410 µM)
MIC (Cyberlindnera jadinii): 256 mg/L (≈ 707 µM)
MIC (Aspergillus flavus): 512 mg/L (≈ 1410 µM)
MIC (Saccharomyces cerevisiae): 256 mg/L (≈ 707 µM)
MIC (Candida albicans): 256 mg/L (≈ 707 µM)
MIC (Pichia norvegensis): 512 mg/L (≈ 1410 µM)

CCCCCn1c2ccc(C(=O)CCl)cc2c2cc(C(=O)CCl)ccc21
MIC (Bacillus): 512 mg/L (≈ 1310 µM)
MIC (Escherichia coli): 128 mg/L (≈ 328 µM)
MIC (Pseudomonas aeruginosa): 128 mg/L (≈ 328 µM)
MIC [1]: 256 mg/L (≈ 656 µM)
MIC (Staphylococcus aureus [2]): 512 mg/L (≈ 1310 µM)
MIC (Staphylococcus aureus [3]): 256 mg/L (≈ 656 µM)
MIC (Bacillus spizizenii): 512 mg/L (≈ 1310 µM)
MIC (Micrococcus luteus): 512 mg/L (≈ 1310 µM)
MIC (Cyberlindnera jadinii): 128 mg/L (≈ 328 µM)
MIC (Aspergillus flavus): 128 mg/L (≈ 328 µM)
MIC (Saccharomyces cerevisiae): 128 mg/L (≈ 328 µM)
MIC (Candida albicans): 256 mg/L (≈ 656 µM)
MIC (Pichia norvegensis): 256 mg/L (≈ 656 µM)

CCn1c2ccc(C(=O)CCl)cc2c2cc(C(=O)CCl)ccc21
MIC (Bacillus): 512 mg/L (≈ 1470 µM)
MIC (Escherichia coli): 512 mg/L (≈ 1470 µM)
MIC (Pseudomonas aeruginosa): 256 mg/L (≈ 735 µM)
MIC [1]: 512 mg/L (≈ 1470 µM)
MIC (Staphylococcus aureus [2]): 512 mg/L (≈ 1470 µM)
MIC (Staphylococcus aureus [3]): 256 mg/L (≈ 735 µM)
MIC (Bacillus spizizenii): 512 mg/L (≈ 1470 µM)
MIC (Micrococcus luteus): 256 mg/L (≈ 735 µM)
MIC (Cyberlindnera jadinii): 256 mg/L (≈ 735 µM)
MIC (Aspergillus flavus): 256 mg/L (≈ 735 µM)
MIC (Saccharomyces cerevisiae): 128 mg/L (≈ 368 µM)
MIC (Candida albicans): 512 mg/L (≈ 1470 µM)
MIC (Pichia norvegensis): 128 mg/L (≈ 368 µM)

CCCCCCCCCCn1c2ccc(-c3csc(N)n3)cc2c2cc(-c3csc(N)n3)ccc21
MIC (Bacillus): 128 mg/L (≈ 254 µM)
MIC (Escherichia coli): 256 mg/L (≈ 508 µM)
MIC (Pseudomonas aeruginosa): 512 mg/L (≈ 1020 µM)
MIC [1]: 512 mg/L (≈ 1020 µM)
MIC (Staphylococcus aureus [2]): 128 mg/L (≈ 254 µM)
MIC (Staphylococcus aureus [3]): 128 mg/L (≈ 254 µM)
MIC (Bacillus spizizenii): 512 mg/L (≈ 1020 µM)
MIC (Micrococcus luteus): 256 mg/L (≈ 508 µM)
MIC (Cyberlindnera jadinii): 256 mg/L (≈ 508 µM)
MIC (Aspergillus flavus): 128 mg/L (≈ 254 µM)
MIC (Saccharomyces cerevisiae): 256 mg/L (≈ 508 µM)
MIC (Candida albicans): 128 mg/L (≈ 254 µM)
MIC (Pichia norvegensis): 128 mg/L (≈ 254 µM)

CCCCCCCCCCn1c2ccc(C(=O)CCl)cc2c2cc(C(=O)CCl)ccc21
MIC (Bacillus): 256 mg/L (≈ 556 µM)
MIC (Escherichia coli): 512 mg/L (≈ 1110 µM)
MIC (Pseudomonas aeruginosa): 128 mg/L (≈ 278 µM)
MIC [1]: 256 mg/L (≈ 556 µM)
MIC (Staphylococcus aureus [2]): 512 mg/L (≈ 1110 µM)
MIC (Staphylococcus aureus [3]): 256 mg/L (≈ 556 µM)
MIC (Bacillus spizizenii): 256 mg/L (≈ 556 µM)
MIC (Micrococcus luteus): 128 mg/L (≈ 278 µM)
MIC (Cyberlindnera jadinii): 256 mg/L (≈ 556 µM)
MIC (Aspergillus flavus): 512 mg/L (≈ 1110 µM)
MIC (Saccharomyces cerevisiae): 256 mg/L (≈ 556 µM)
MIC (Candida albicans): 256 mg/L (≈ 556 µM)
MIC (Pichia norvegensis): 256 mg/L (≈ 556 µM)

CCCCCCCCn1c2ccc(C(=O)CCl)cc2c2cc(C(=O)CCl)ccc21
MIC (Bacillus): 512 mg/L (≈ 1180 µM)
MIC (Escherichia coli): 512 mg/L (≈ 1180 µM)
MIC (Pseudomonas aeruginosa): 256 mg/L (≈ 592 µM)
MIC [1]: 512 mg/L (≈ 1180 µM)
MIC (Staphylococcus aureus [2]): 512 mg/L (≈ 1180 µM)
MIC (Staphylococcus aureus [3]): 512 mg/L (≈ 1180 µM)
MIC (Bacillus spizizenii): 512 mg/L (≈ 1180 µM)
MIC (Micrococcus luteus): 512 mg/L (≈ 1180 µM)
MIC (Cyberlindnera jadinii): 512 mg/L (≈ 1180 µM)
MIC (Aspergillus flavus): 512 mg/L (≈ 1180 µM)
MIC (Saccharomyces cerevisiae): 256 mg/L (≈ 592 µM)
MIC (Candida albicans): 512 mg/L (≈ 1180 µM)
MIC (Pichia norvegensis): 512 mg/L (≈ 1180 µM)

CCCCn1c2ccc(C(=O)CCl)cc2c2cc(C(=O)CCl)ccc21
MIC (Bacillus): 256 mg/L (≈ 680 µM)
MIC (Escherichia coli): 512 mg/L (≈ 1360 µM)
MIC (Pseudomonas aeruginosa): 512 mg/L (≈ 1360 µM)
MIC [1]: 512 mg/L (≈ 1360 µM)
MIC (Staphylococcus aureus [2]): 256 mg/L (≈ 680 µM)
MIC (Staphylococcus aureus [3]): 256 mg/L (≈ 680 µM)
MIC (Bacillus spizizenii): 256 mg/L (≈ 680 µM)
MIC (Micrococcus luteus): 256 mg/L (≈ 680 µM)
MIC (Cyberlindnera jadinii): 128 mg/L (≈ 340 µM)
MIC (Aspergillus flavus): 256 mg/L (≈ 680 µM)
MIC (Saccharomyces cerevisiae): 512 mg/L (≈ 1360 µM)
MIC (Candida albicans): 512 mg/L (≈ 1360 µM)
MIC (Pichia norvegensis): 128 mg/L (≈ 340 µM)

CCCn1c2ccc(-c3csc(N)n3)cc2c2cc(-c3csc(N)n3)ccc21
MIC (Bacillus): 256 mg/L (≈ 631 µM)
MIC (Escherichia coli): 256 mg/L (≈ 631 µM)
MIC (Pseudomonas aeruginosa): 128 mg/L (≈ 316 µM)
MIC [1]: 256 mg/L (≈ 631 µM)
MIC (Staphylococcus aureus [2]): 256 mg/L (≈ 631 µM)
MIC (Staphylococcus aureus [3]): 128 mg/L (≈ 316 µM)
MIC (Bacillus spizizenii): 128 mg/L (≈ 316 µM)
MIC (Micrococcus luteus): 128 mg/L (≈ 316 µM)
MIC (Cyberlindnera jadinii): 128 mg/L (≈ 316 µM)
MIC (Aspergillus flavus): 256 mg/L (≈ 631 µM)
MIC (Saccharomyces cerevisiae): 256 mg/L (≈ 631 µM)
MIC (Candida albicans): 64 mg/L (≈ 158 µM)
MIC (Pichia norvegensis): 256 mg/L (≈ 631 µM)

O=C(N[C@H](CO)[C@H](O)c1ccc([N+](=O)[O-])cc1)C(Cl)Cl [CHLORAMPHENICOL]
MIC (Bacillus): 32 mg/L (≈ 99 µM)
MIC [1]: 32 mg/L (≈ 99 µM)
MIC (Staphylococcus aureus [2]): 64 mg/L (≈ 198 µM)
MIC (Staphylococcus aureus [3]): 8 mg/L (≈ 24.8 µM)
MIC (Bacillus spizizenii): 32 mg/L (≈ 99 µM)
MIC (Micrococcus luteus): 64 mg/L (≈ 198 µM)

CCn1cc(C(=O)O)c(=O)c2cc(F)c(N3CCNCC3)cc21 [NORFLOXACIN]
MIC (Bacillus): 4 mg/L (≈ 12.5 µM)
MIC (Escherichia coli): 16 mg/L (≈ 50.1 µM)
MIC (Pseudomonas aeruginosa): 2 mg/L (≈ 6.26 µM)
MIC [1]: 4 mg/L (≈ 12.5 µM)
MIC (Staphylococcus aureus [2]): 8 mg/L (≈ 25.1 µM)
MIC (Staphylococcus aureus [3]): 2 mg/L (≈ 6.26 µM)
MIC (Bacillus spizizenii): 1 mg/L (≈ 3.13 µM)
MIC (Micrococcus luteus): 2 mg/L (≈ 6.26 µM)

OC(Cn1cncn1)(Cn1cncn1)c1ccc(F)cc1F [FLUCONAZOLE]
MIC (Cyberlindnera jadinii): 8 mg/L (≈ 26.1 µM)
MIC (Aspergillus flavus): 256 mg/L (≈ 836 µM)
MIC (Saccharomyces cerevisiae): 16 mg/L (≈ 52.2 µM)
MIC (Candida albicans): 32 mg/L (≈ 104 µM)
MIC (Pichia norvegensis): 32 mg/L (≈ 104 µM)
